Laboratory results as given in US20060014790A1, “Methods of treatment of amyloidosis using spirocyclohexane aspartyl-protease inhibitors” (priority 2004, published 2006).

target: catE / beta-secretase (BACE); test: CatE/BACE selectivity (ratio of IC50 values); format: biochemical; conditions: each value is an average of four experimental runs; multiple values = more than one experiment
Method: Selectivity was calculated as a ratio of inhibition (IC50) values in which the inhibition of beta-secretase was compared to the inhibition of other aspartyl proteases.
Selectivity is reported as the ratio of IC50(catE):IC50(BACE).
In the following examples, each value is an average of four experimental runs and multiple values for one compound indicate that more than one experiment was conducted.

| Structure (SMILES) | IC50 catE/IC50 BACE |
| --- | --- |
| CNC1CCC(NCC(O)C(Cc2cc(F)cc(F)c2)NC(C)=O)(c2cccc(C(C)(C)C)c2)CC1 (single isomer, unassigned) [196B-16 Diastereomer A, N-(4-(1-(3-tert-butylphenyl)-4-(methylamino)cyclohexylamino)-1-(3,5-difluorophenyl)-3-hydroxybutan-2-yl)acetamide] | >4.7 |
| CNC1CCC(NCC(O)C(Cc2cc(F)cc(F)c2)NC(C)=O)(c2cccc(C(C)(C)C)c2)CC1 (single isomer, unassigned) [196B-17 Diastereomer B, N-(4-(1-(3-tert-butylphenyl)-4-(methylamino)cyclohexylamino)-1-(3,5-difluorophenyl)-3-hydroxybutan-2-yl)acetamide] | 1.8 |
| CC(=O)NC(Cc1cc(F)cc(F)c1)C(O)CNC1(c2cccc(C(C)(C)C)c2)CCC(N)CC1 (single isomer, unassigned) [196B-18 Diastereomer A, N-(4-(1-(3-tert-butylphenyl)-4-aminocyclohexylamino)-1-(3,5-difluorophenyl)-3-hydroxybutan-2-yl)acetamide] | >8.4 |
| CC(=O)NC(Cc1cc(F)cc(F)c1)C(O)CNC1(c2cccc(C(C)(C)C)c2)CCC(N)CC1 (single isomer, unassigned) [196B-19 Diastereomer B, N-(4-(1-(3-tert-butylphenyl)-4-aminocyclohexylamino)-1-(3,5-difluorophenyl)-3-hydroxybutan-2-yl)acetamide] | >8.4 |
| CC(=O)NC(Cc1cc(F)cc(F)c1)C(O)CNC1(c2cccc(C(C)(C)C)c2)CCC(C(F)(F)F)CC1 (single isomer, unassigned) [196B-21 Diastereomer A, N-(4-(1-(3-tert-butylphenyl)-4-(trifluoromethyl)cyclohexylamino)-1-(3,5-difluorophenyl)-3-hydroxybutan-2-yl)acetamide] | 6.4 |
| CC(=O)NC(Cc1cc(F)cc(F)c1)C(O)CNC1(c2cccc(C(C)(C)C)c2)CCC(C(F)(F)F)CC1 (single isomer, unassigned) [196B-22 Diastereomer B, N-(4-(1-(3-tert-butylphenyl)-4-(trifluoromethyl)cyclohexylamino)-1-(3,5-difluorophenyl)-3-hydroxybutan-2-yl)acetamide] | 2.5 |
| CC(=O)NC1CCC(NCC(O)C(Cc2cc(F)cc(F)c2)NC(C)=O)(c2cccc(C(C)(C)C)c2)CC1 (single isomer, unassigned) [196B-23 Diastereomer A, N-[3-[4-Acetylamino-1-(3-tert-butyl-phenyl)-cyclohexylamino]-1-(3,5-difluoro-benzyl)-2-hydroxy-propyl]-acetamide] | 29.5 |
| CC(=O)NC(Cc1cc(F)cc(F)c1)C(O)CNC1(c2cccc(C(C)(C)C)c2)CCC([S+](C)[O-])CC1 (single isomer, unassigned) [196B-24 Diastereomer B, N-(4-(1-(3-tert-butylphenyl)-4-(methylsulfinyl)cyclohexylamino)-1-(3,5-difluorophenyl)-3-hydroxybutan-2yl)acetamide] | 3.0 |
| CC(=O)NC(Cc1cc(F)cc(F)c1)C(O)CNC1(c2cccc(C(C)(C)C)c2)CCC([S+](C)[O-])CC1 (single isomer, unassigned) [196B-25 Diastereomer A, N-(4-(1-(3-tert-butylphenyl)-4-(methylsulfinyl)cyclohexylamino)-1-(3,5-difluorophenyl)-3-hydroxybutan-2yl)acetamide] | 1.1 |
| CC(=O)NC(Cc1cc(F)cc(F)c1)C(O)CNC1(c2cccc(C(C)(C)C)c2)CCC(O)(CO)CC1 (single isomer, unassigned) [196B-27 Diastereomer B, N-[3-[1-(3-tert-Butyl-phenyl)-4-hydroxy-4-hydroxymethyl-cyclohexylamino]-1-(3,5-difluoro-benzyl)-2-hydroxy-propyl]-acetamide] | >5.3 |
| CC(=O)NC(Cc1cc(F)cc(F)c1)C(O)CNC1(c2cccc(C(C)(C)C)c2)CCC(O)(CO)CC1 (single isomer, unassigned) [196B-28 Diastereomer A, N-[3-[1-(3-tert-Butyl-phenyl)-4-hydroxy-4-hydroxymethyl-cyclohexylamino]-1-(3,5-difluoro-benzyl)-2-hydroxy-propyl]-acetamide] | >7.4 |
| COC(=O)NC1CCC(NCC(O)C(Cc2cc(F)cc(F)c2)NC(C)=O)(c2cccc(C(C)(C)C)c2)CC1 (single isomer, unassigned) [196B-29 Diastereomer A, methyl 4-(3-acetamido-4-(3,5-difluorophenyl)-2-hydroxybutylamino)-4-(3-tert-butylphenyl)cyclohexylcarbamate] | 13.1 |
| CC(=O)NC(Cc1cc(F)cc(F)c1)C(O)CNC1(c2cccc(C(C)(C)C)c2)CCC(N(O)C(C)=O)CC1 (single isomer, unassigned) [196B-31 Diastereomer A, N-(4-(3-acetamido-4-(3,5-difluorophenyl)-2-hydroxybutylamino)-4-(3-tert-butylphenyl)cyclohexyl)-N-hydroxyacetamide] | 13.0 |
| CC(=O)NC(Cc1cc(F)cc(F)c1)C(O)CNC1(c2cccc(C(C)(C)C)c2)CCC(NS(C)(=O)=O)CC1 (single isomer, unassigned) [196B-35 Diastereomer B, N-(4-(1-(3-tert-butylphenyl)-4-(methylsulfonamido)cyclohexylamino)-1-(3,5-difluorophenyl)-3-hydroxybutan-2-yl)acetamide] | >3.0 |
| CC(=O)NC(Cc1cc(F)cc(F)c1)C(O)CNC1(c2cccc(C(C)(C)C)c2)CCC(NC=O)CC1 (single isomer, unassigned) [196B-36 Diastereomer A, N-(4-(1-(3-tert-butylphenyl)-4-formamidocyclohexylamino)-1-(3,5-difluorophenyl)-3-hydroxybutan-2-yl)acetamide] | 26.5 |
| CNC(=O)NC1CCC(NCC(O)C(Cc2cc(F)cc(F)c2)NC(C)=O)(c2cccc(C(C)(C)C)c2)CC1 (single isomer, unassigned) [196B-38 Diastereomer B, 1-(4-(3-acetamido-4-(3,5-difluorophenyl)-2-hydroxybutylamino)-4-(3-tert-butylphenyl)cyclohexyl)-3-methylurea] | >3.5 |
| CNC(=O)NC1CCC(NCC(O)C(Cc2cc(F)cc(F)c2)NC(C)=O)(c2cccc(C(C)(C)C)c2)CC1 (single isomer, unassigned) [196B-39 Diastereomer A, 1-(4-(3-acetamido-4-(3,5-difluorophenyl)-2-hydroxybutylamino)-4-(3-tert-butylphenyl)cyclohexyl)-3-methylurea] | >1.3 |
| CC(=O)NC(Cc1ccc(O)c(F)c1)C(O)CNC1(c2cccc(C(C)C)c2)CCCCC1 (centres unmarked) [Example 196B-1, N-{1-(3-Fluoro-4-hydroxy-benzyl)-2-hydroxy-3[1-(3-isopropyl-phenyl)-cyclohexylamino]-propyl}-acetamide] | 3.2 |
| CC(=O)NC(Cc1cc(F)cc(F)c1)C(O)CNC1(c2cccc(C(C)C)c2)CCC(=O)CC1 (centres unmarked) [Example 196B-2, N-{1-(3,5-Difluoro-benzyl)-2-hydroxy-3-[1-(3-isopropyl-phenyl)-4-oxo-cyclohexylamino]-propyl}-acetamide] | 3.7 |
| CC(=O)NC(Cc1cc(F)cc(F)c1)C(O)CNC1(c2cccc(C(C)(C)C)c2)CCC(C)CC1 (centres unmarked) [Example 196B-5, N-[3-[1-(3-tert-Butyl-phenyl)-4-methyl-cyclohexylamino]-1-(3,5-difluoro-benzyl)-2-hydroxy-propyl]-acetamide] | 3.1 |
| CC(=O)NC(Cc1cc(F)cc(F)c1)C(O)CNC1(c2cccc(-c3ccsc3)c2)CCC(=O)CC1 (centres unmarked) [Example 196B-10, N-(1-(3,5-difluorophenyl)-3-hydroxy-4-(4-oxo-1-(3-(thiophen-3-yl)phenyl)cyclohexylamino)butan-2-yl)acetamide] | 5.6 |
| CC(=O)NC(Cc1cc(F)cc(F)c1)C(O)CNC1(c2cccc(-n3cccn3)c2)CCC2(CC1)OCCO2 (centres unmarked) [Example 196B-13, N-{1-(3,5-Difluoro-benzyl)-2-hydroxy-3-[8-(3-pyrazol-1-yl-phenyl)-1,4-dioxa-spiro[4.5]dec-8-ylamino]-propyl}-acetamide] | 2.5 |
| CC(=O)NC(Cc1cc(F)cc(F)c1)C(O)CNC1(c2cccc(C(C)(C)C)c2)CCN(CCC#N)CC1 (centres unmarked) [Example 196B-26, N-[3-[4-(3-tert-Butyl-phenyl)-1-(2-cyano-ethyl)-piperidin-4-ylamino]-1-(3,5-difluoro-benzyl)-2-hydroxy-propyl]-acetamide] | 1.8 |
| CC(=O)NC(Cc1cc(F)cc(F)c1)C(O)CNC1(c2cccc(C(C)(C)C)c2)CCCN(C)C1 (centres unmarked) [Example 196B-32, N-(4-(3-(3-tert-butylphenyl)-1-methylpiperidin-3-ylamino)-1-(3,5-difluorophenyl)-3-hydroxybutan-2-yl)acetamide] | >2,0 |
| CC(=O)NC(Cc1cc(F)cc(F)c1)C(O)CNC1(c2cccc(Br)c2)CCC2(CC1)OCCO2 (centres unmarked) [Example 196B-40, N-[3-[8-(3-Bromo-phenyl)-1,4-dioxa-spiro[4.5]dec-8-ylamino]-1-(3,5-difluoro-benzyl)-2-hydroxy-propyl]-acetamide] | 2.8 |
| CC(=O)NC(Cc1cc(F)cc(F)c1)C(O)CNC1(c2cccc(C(C)(C)C)c2)CCC(C#N)CC1 (centres unmarked) [Example 196B-41, N-[3-[1-(3-tert-Butyl-phenyl)-4-cyano-cyclohexylamino]-1-(3,5-difluoro-benzyl)-2-hydroxy-propyl]-acetamide] | 2.5 |
